The numbers were not newly measured in patent US20190175566A1, “ANTI-TUMOR COCKTAIL COMPRISING AN ANTI-TUMOR AGENT SELECTIVE FOR TUMOR ACIDITY, AN ANTIOXIDANT, AND A P-GLYCOPROTEIN INHIBITOR” (ARION TECNOLOGIA BRASIL- GESTAO DE ATIVOS S/A, priority 2016, published 2019), which cites them from elsewhere.

Read-outs that look alike come from different tables or passages of the source.

For data set [1] the following is noted: in mice, intravenous route.

For `O=C(O)c1c2ccccc2nc2ccccc12` [9-acridine carboxylic acid], the “toxicity (LD50)” value is, setting by setting: (route not given) 240 mg/kg; (via intraperitoneal application (subcutaneously)) 240 mg/kg.

With `COC1=C(OC)C(=O)C(C/C=C(\C)CC/C=C(\C)CC/C=C(\C)CC/C=C(\C)CC/C=C(\C)CC/C=C(\C)CC/C=C(\C)CC/C=C(\C)CC/C=C(\C)CCC=C(C)C)=C(C)C1=O` [Co-Q10, Coenzyme Q10], the “toxicity (LD50)” value (orally) was around 20000 mg/kg.

As to `COc1cc2c(cc1OC)CN(CCc1ccc(NC(=O)c3cc(OC)c(OC)cc3NC(=O)c3cnc4ccccc4c3)cc1)CC2` [Tariquidar, tariquidar], the “toxicity (LD50)” value in data set [1] was 300 mg/kg.
